These results are taken from patent US20100173865A1, “Anti-Cancer Agent-Hyaluronic Acid Conjugate Compositions and Methods” (priority 2007, published 2010).

Data set [1] relates to CD31/PECAM (microvessel density). The experiment in a line: Microvessel density by CD31 staining of tumor sections. Particulars: weekly i.v. injections. Type of data set: in vivo, nude mice. As to the method:
Frozen tissues were sectioned into 8- to 10-μm slices and used for detection of CD31/platelet/endothelial cell adhesion molecule 1 (CD31/PECAM). The slices were mounted on positively charged Plus slides (Fisher Scientific, Pittsburgh, Pa.) and air-dried for 30 minutes; fixed sequentially in cold acetone (5 minutes), 1:1 acetone/chloroform (v/v; 5 minutes), and acetone (5 minutes), and then washed with PBS. Immunohistochemical procedures were done as described previously with the primary antibody diluted 1:400. Peroxidase-conjugated secondary antibody was used for immunohistochemical analysis of CD31/PECAM. Bleaching of fluorescence was minimized by covering the slides with 90% glycerol and 10% PBS. The slides were incubated with stable 3,3′-diaminobenzidine for 10 to 20 minutes and then examined for the presence of CD31/PECAM. The sections were rinsed with distilled water, counterstained with Gill's hematoxylin for 1 minute, and mounted with Universal Mount (Research Genetics, Huntsville, Ala.).
To quantify microvessel density (MVD), areas containing higher numbers of tumor-associated blood vessels were identified at low microscopic power (100×). Vessels completely stained with anti-CD31 antibodies were counted in three random 0.04-mm^2 fields per slide at 200× magnification.

The conditions of data set [2]: plasma; IP administration; data from Banzato et al.; cited from earlier work.
Data set [3] relates to OSC19-luciferase cell line. Nature of the data set: MTT cell proliferation assay. It is filed as cell-based. Particulars: Homo sapiens, 72 h, 3-day incubation, read-out: IC50 (growth inhibition, MTT). The method, then: (§1) To test the ability of paclitaxel and HA-paclitaxel to inhibit the proliferation of all human squamous cancer cell lines in vitro, a 3-(4,5-dimethylthiazol-2-yl)-2,5-diphenyltetrazolium bromide (MTT) assay was used. Two thousand cells per well were grown in DMEM medium supplemented with 10% FBS in 96-well tissue culture plates. After 24 h, the cells were treated with various concentrations of paclitaxel or HA-paclitaxel in DMEM medium supplemented with 2% FBS. To measure the number of metabolically active cells after a 3-day incubation period, an MTT assay as measured by a 96-well microtiter plate reader (MR-5000; Dynatech Laboratories Inc, Chantilly, Va.) at an optical density of 570 nm was used.
(§2) Quantified results of PCNA, CD31, and tumor volume were compared with Kruskal-Wallis and Wilcoxon rank-sum test, as appropriate. Survival was analyzed with the Kaplan-Meier method. Differences between the treatment and control groups were compared with the log-rank test. A two-tailed p<0.05 was considered significant.

The test system of the next data set is HN5 cell line. The experiment in a line: MTT cell proliferation assay. It is filed as cell-based. Particulars: Homo sapiens, 72 h, 3-day incubation, read-out: IC50 (growth inhibition, MTT). As to the method: as §1, §2
A further data set relates to HN5 xenografts. The experiment in a line: Orthotopic nude mouse model of oral tongue SCC, HN5. Type of data set: in vivo, nude mice.
Data set [4] concerns OSC19-luciferase xenografts. The experiment in a line: Orthotopic nude mouse model of oral tongue SCC, OSC19-luciferase. It is filed as in vivo, nude mice.
For another data set, the system named is NMP-1 xenografts. The experiment in a line: NMP-1 orthotopic (intraperitoneal) ovarian carcinoma xenograft, survival and MR imaging. It is filed as in vivo, nude mice. Particulars: for T/C / Mean Day of Survival/Sacrifice: qd7 × 3 i.p. from Day 7; for Mean Day of Survival/Sacrifice: mean ± SEM. The method, then: On Day 0, about 1×10^7 viable NMP-1 cells were injected into the peritoneal cavities of groups of 6 to 9-week-old female nude mice (Harlan Sprague Dawley, Indianapolis, Ind.). Five or more mice per experimental group were used as the basis for statistical analyses. Administration of drugs was initiated 1 week later (Day 7). […] NMP-1-implanted mice develop marked ascites as one of the earliest clinical signs of peritoneal tumor and before other aspects of tumor progression are apparent; ascitic fluid was repeatedly removed at intervals from mice, beginning around the fourth week. […] For any tumor-bearing mice that succumbed between daily observations and before the opportunity to sacrifice them, the day of death was considered to be the day before the date they were discovered as deceased. The day of humane sacrifice/death was recorded for each mouse, and these values were compared among control and treatment groups by paired or unpaired Student's t-tests for the survival analyses.
MRI studies were conducted in the MDACC Small Animal Imaging Facility (SAIF). […] Klostergaard, J., et al., Magnetic Resonance Imaging-Based Prospective Detection of Intraperitoneal Human Ovarian Carcinoma Xenografts Treatment Response, Int J Gynecol Cancer, 2006, 16 Suppl 1:111-7. Respiratory-gated, T2-weighted (TE: 45.0 ms, TR: 1215.6 ms, 0.5 mm thickness, 0.3 mm space between images) coronal images were used for initial evaluation of tumor distribution and growth in these models; images of the abdomens of these mice were acquired using a Bruker 4.7 T, 40 cm Biospec MR scanner (Bruker Biospin USA, Billerica, Mass.).
In the NMP-1 studies, mice were held for survival endpoints. In the SKOV-3ip studies, tumor measurements were performed using the Image J program (National Institutes of Health, USA). Regions of interest (ROI) were drawn on each image that contained tumor and then multiplied by slice thickness to obtain the tumor volume. […] To avoid overestimation of tumor size, one half of the volume from the most dorsal and ventral images containing tumor were used in the volume analysis. Assuming a tumor density of 1 g/ml, tumor volumes (mm^3) were converted to weight (g) for analysis.

As to `CC(=O)O[C@H]1C(=O)[C@@]2(C)[C@H]([C@H](OC(=O)c3ccccc3)[C@]3(O)C[C@H](OC(=O)[C@H](O)[C@@H](NC(=O)c4ccccc4)c4ccccc4)C(C)=C1C3(C)C)[C@]1(OC(C)=O)CO[C@@H]1C[C@@H]2O` [Taxol, Paclitaxel], in data set [1], the “Effect on microvessel density (MVD)” value is on record as “no effect on MVD”. In data set [2], the AUC is 144 µg·h/mL. The IC50 came to 2.16 nM in data set [3] and 4.58 nM in the data set on HN5 cell line. Moreover, the Median survival time was found to be 40 days with HN5 xenografts (3 weekly i.v. injections, control 26 days) and 60 days in data set [4] (OSC19-luciferase, 3 weekly i.v. injections, control 30 days). The “Reduction of tumor growth” value in the data set with HN5 xenografts (one week after the last of 3 weekly i.v. treatments, HA-paclitaxel 120 mg/kg paclitaxel equivalent, paclitaxel 10 mg/kg) is 63.8%; in data set [4] (OSC19, one week after the last of 3 weekly i.v. treatments, HA-paclitaxel 120 mg/kg paclitaxel equivalent, paclitaxel 10 mg/kg) it was 64.2%. For the same molecule, the “Reduction of bioluminescence as opposed to control” value in data set [4] (OSC19-luciferase, one week after the last treatment) stood at 86.5%. In addition, the T/C in the data set on NMP-1 xenografts (10 mg/kg) is listed as about 105; with NMP-1 xenografts (15 mg/kg), about 120. Also, the “Mean Day of Survival/Sacrifice” value in the data set on NMP-1 xenografts (10 mg/kg) was 32.6 ± 5.6 days; in the data set with NMP-1 xenografts (15 mg/kg), 37.6 ± 9.3 days. In the data set on NMP-1 xenografts (multiple-dose regimens, 10 or 15 mg/kg), the “Activity by MR imaging and survival criteria” value is “essentially inactive”.
